Patent US11746100B2 (GLOBAL BLOOD THERAPEUTICS, INC., priority 2020, dated 2023)

target: T1, human ferroportin (Homo sapiens, UniProt Q9NP59); assay: Biological in-vitro ferroportin internalization assay (luciferase reporter); assay type: cell-based; conditions: average pEC50; stably-transfected CHO cell line expressing human ferroportin tagged to a luciferase reporter; 6 h incubation with test compound
T1 construct: luciferase reporter (read with the Nano-Glo Luciferase Assay System); expressed in transfected cells; host or cells: CHO cells, stably transfected, expression induced with doxycycline
T1 sequence (Q9NP59 1-571): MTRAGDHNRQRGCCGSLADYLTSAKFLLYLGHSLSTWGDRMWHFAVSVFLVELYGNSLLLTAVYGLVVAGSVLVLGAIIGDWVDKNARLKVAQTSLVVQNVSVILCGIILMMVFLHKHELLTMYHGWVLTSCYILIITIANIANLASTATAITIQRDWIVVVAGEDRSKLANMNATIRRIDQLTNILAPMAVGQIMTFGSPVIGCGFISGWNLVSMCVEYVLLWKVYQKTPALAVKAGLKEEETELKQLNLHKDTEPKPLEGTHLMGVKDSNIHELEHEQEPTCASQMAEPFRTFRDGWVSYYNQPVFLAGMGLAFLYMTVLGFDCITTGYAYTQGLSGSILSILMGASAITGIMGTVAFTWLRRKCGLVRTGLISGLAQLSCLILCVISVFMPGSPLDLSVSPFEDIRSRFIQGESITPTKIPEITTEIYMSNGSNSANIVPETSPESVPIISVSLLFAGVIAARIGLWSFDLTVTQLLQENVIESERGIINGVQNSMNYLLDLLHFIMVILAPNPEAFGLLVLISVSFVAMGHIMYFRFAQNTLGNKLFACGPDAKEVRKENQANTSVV
Method: The protocol for this assay is generally as described in WO2018/128828, incorporated herein by reference in its entirety. Functional internalization of ferroportin protein was measured using a stably-transfected CHO cell line expressing the human ferroportin tagged to a luciferase reporter. Cells were plated for 24 h in the presence of ferric ammonium citrate (FAC). Ferroportin protein expression was induced with doxycycline for 24 h. The next day, the compounds were added. Test compounds were dissolved in DMSO. Cells were incubated with the test compounds for 6 h, and subsequently luciferase activity was measured using the Nano-Glo Luciferase Assay System and Glomax (Promega, Madison, Wis.). The average pEC50 was determined for the test compounds.

SMILES | pEC50
Cc1ccnc(-c2nc3c(c(N(C)CC(=O)NC(C)(C)C)n2)CCC3)c1 [Compound 24, N-tert-butyl-2-{methyl[2-(4-methylpyridin-2-yl)-5H,6H,7H-cyclopenta[d]pyrimidin-4-yl]amino}acetamide] | 7.6
CN(CC(=O)NC1(C)CCCCC1)c1nc(-c2ccccn2)nc2c1CCC2 [Compound 25, 2-{methyl[2-(pyridin-2-yl)-5H,6H,7H-cyclopenta[d]pyrimidin-4-yl]amino}-N-(1-methylcyclohexyl)acetamide] | 7.1
CN(CC(=O)NC(C)(C)C)c1nc(-c2cnc(O)cn2)nc2c1CCC2 [Compound 28, N-tert-butyl-2-{[2-(5-hydroxypyrazin-2-yl)-5H,6H,7H-cyclopenta[d]pyrimidin-4-yl](methyl)amino}acetamide] | 5.9
O=C(NC1CCCCC1)C1CN(c2nc(-c3ccccn3)nc3c2CCC3)C1 [Compound 29, N-cyclohexyl-1-[2-(pyridin-2-yl)-5H,6H,7H-cyclopenta[d]pyrimidin-4-yl]azetidine-3-carboxamide] | 5.9
Cc1ccnc(-c2nc3c(c(N4CC(C(=O)NC5CCCCC5)C4)n2)CCC3)c1 [Compound 30, N-cyclohexyl-1-[2-(4-methylpyridin-2-yl)-5H,6H,7H-cyclopenta[d]pyrimidin-4-yl]azetidine-3-carboxamide] | 5.7
CN(CC(=O)Nc1ccc2c(c1)OC(F)(F)O2)c1nc(-c2ccccn2)nc2c1CCC2 [Compound 32, N-(2,2-difluoro-2H-1,3-benzodioxol-5-yl)-2-{methyl[2-(pyridin-2-yl)-5H,6H,7H-cyclopenta[d]pyrimidin-4-yl]amino}acetamide] | 7.2
CC(C)(C)NC(=O)CNc1nc(-c2ncccn2)nc2c1CCC2 [Compound 33, N-tert-butyl-2-{[2-(pyrimidin-2-yl)-5H,6H,7H-cyclopenta[d]pyrimidin-4-yl]amino}acetamide] | 5.7
COc1ccnc(-c2nc3c(c(N(C)CC(=O)NC(C)(C)C)n2)CCC3)c1 [Compound 34, N-tert-butyl-2-{[2-(4-methoxypyridin-2-yl)-5H,6H,7H-cyclopenta[d]pyrimidin-4-yl](methyl)amino}acetamide] | 7.9
CC(C)(C)NC(=O)CN(CCO)c1nc(-c2ccccn2)nc2c1CCC2 [Compound 37, N-tert-butyl-2-[(2-hydroxyethyl)[2-(pyridin-2-yl)-5H,6H,7H-cyclopenta[d]pyrimidin-4-yl]amino]acetamide] | 6.6
CN(CC(=O)NCc1ccccn1)c1nc(-c2ccccn2)nc2c1CCC2 [Compound 38, 2-{methyl[2-(pyridin-2-yl)-5H,6H,7H-cyclopenta[d]pyrimidin-4-yl]amino}-N-[(pyridin-2-yl)methyl]acetamide] | 6.6
O=C1CCCCCN1c1nc(-c2ccccn2)nc2c1CCC2 [Compound 46, 1-[2-(pyridin-2-yl)-5H,6H,7H-cyclopenta[d]pyrimidin-4-yl]azepan-2-one] | 5.1
O=C1CN(c2nc(-c3ccccn3)nc3c2CCC3)CCCN1 [Compound 47, 4-[2-(pyridin-2-yl)-5H,6H,7H-cyclopenta[d]pyrimidin-4-yl]-1,4-diazepan-2-one] | 5.7
Cc1ccnc(-c2nc3c(c(N4CCCO[C@@H]5CCC[C@@H]54)n2)CCC3)c1 [Compound 49, 2-{4-[(5aS,8aR)-octahydro-2H-cyclopenta[b][1,4]oxazepin-5-yl]-5H,6H,7H-cyclopenta[d]pyrimidin-2-yl}-4-methylpyridine] | 7.1

Next, values leading:

pEC50 | SMILES
6.6 | CN(CC(=O)NC1CCCOC1)c1nc(-c2ccccn2)nc2c1CCC2 (stereo not drawn) [Compound 26, 2-{methyl[2-(pyridin-2-yl)-5H,6H,7H-cyclopenta[d]pyrimidin-4-yl]amino}-N-(oxan-3-yl)acetamide]
6.8 | CN(CC(=O)NCc1ccccc1)c1nc(-c2ccccn2)nc2c1CCC2 [Compound 27, N-benzyl-2-{methyl[2-(pyridin-2-yl)-5H,6H,7H-cyclopenta[d]pyrimidin-4-yl]amino}acetamide]
6.2 | CN1CCC(NC(=O)CN(C)c2nc(-c3ccccn3)nc3c2CCC3)C1=O (stereo not drawn) [Compound 31, N-(1-methyl-2-oxopyrrolidin-3-yl)-2-{methyl[2-(pyridin-2-yl)-5H,6H,7H-cyclopenta[d]pyrimidin-4-yl]amino}acetamide]
7 | COCc1ccnc(-c2nc3c(c(N(C)CC(=O)NC(C)(C)C)n2)CCC3)c1 [Compound 35, N-tert-butyl-2-({2-[4-(methoxymethyl)pyridin-2-yl]-5H,6H,7H-cyclopenta[d]pyrimidin-4-yl}(methyl)amino)acetamide]
7.3 | CCN(CC(=O)NC(C)(C)C)c1nc(-c2ccccn2)nc2c1CCC2 [Compound 36, N-tert-butyl-2-{ethyl[2-(pyridin-2-yl)-5H,6H,7H-cyclopenta[d]pyrimidin-4-yl]amino}acetamide]
6.3 | CN(CC(=O)NC(C)(C)C)c1nc(-c2cccc(OCCO)n2)nc2c1CCC2 [Compound 39, N-tert-butyl-2-({2-[6-(2-hydroxyethoxy)pyridin-2-yl]-5H,6H,7H-cyclopenta[d]pyrimidin-4-yl}(methyl)amino)acetamide]
7.1 | CN(CC(=O)NC(C)(C)C)c1nc(-c2ccc(OCCO)cn2)nc2c1CCC2 [Compound 40, N-tert-butyl-2-({2-[5-(2-hydroxyethoxy)pyridin-2-yl]-5H,6H,7H-cyclopenta[d]pyrimidin-4-yl}(methyl)amino)acetamide]
7.3 | CN(CC(=O)NC(C)(C)C)c1nc(-c2cc(CO)ccn2)nc2c1CCC2 [Compound 41, N-tert-butyl-2-({2-[4-(hydroxymethyl)pyridin-2-yl]-5H,6H,7H-cyclopenta[d]pyrimidin-4-yl}(methyl)amino)acetamide]
7.3 | Cc1ccnc(-c2nc3c(c(N(C)CC(=O)NC(C)(C)C)n2)CCCC3)c1 [Compound 42, N-tert-butyl-2-{methyl[2-(4-methylpyridin-2-yl)-5,6,7,8-tetrahydroquinazolin-4-yl]amino}acetamide]
7 | CN(CC(=O)NC(C)(C)C)c1nc(-c2ccc(CCO)cn2)nc2c1CCC2 [Compound 43, N-tert-butyl-2-({2-[5-(2-hydroxyethyl)pyridin-2-yl]-5H,6H,7H-cyclopenta[d]pyrimidin-4-yl}(methyl)amino)acetamide]
7.9 | CN(CC(=O)NC(C)(C)C)c1nc(-c2cc(OCCO)ccn2)nc2c1CCC2 [Compound 44, N-tert-butyl-2-({2-[4-(2-hydroxyethoxy)pyridin-2-yl]-5H,6H,7H-cyclopenta[d]pyrimidin-4-yl}(methyl)amino)acetamide]
7.2 | Cc1ccnc(-c2nc3c(c(N4CCCO[C@H]5CCC[C@@H]54)n2)CCC3)c1 [Compound 45, 2-{4-[(5aS,8aS)-octahydro-2H-cyclopenta[b][1,4]oxazepin-5-yl]-5H,6H,7H-cyclopenta[d]pyrimidin-2-yl}-4-methylpyridine]
6.8 | c1ccc(-c2nc3c(c(N4CCCO[C@@H]5CCC[C@@H]54)n2)CCC3)nc1 [Compound 48, 2-{4-[(5aS,8aR)-octahydro-2H-cyclopenta[b][1,4]oxazepin-5-yl]-5H,6H,7H-cyclopenta[d]pyrimidin-2-yl}pyridine]
5.6 | O=C1CCN(c2nc(-c3ccccn3)nc3c2CCC3)CCN1 [Compound 50, 1-[2-(pyridin-2-yl)-5H,6H,7H-cyclopenta[d]pyrimidin-4-yl]-1,4-diazepan-5-one]
